Test results taken from publication doi:10.1101/2023.04.05.535784v2 (bioRxiv, 2023).
Positions of bridges follow the written chain, without caps; N, C: chain ends. Residues, ends and D or L forms follow the SMILES beside them.

What was measured:
[1] = tested on: thrombus formation in the lung; details: mice, oral, three consecutive days
THP-1 cells = details: cited from earlier work

For CC(C)C[C@@H]1NC(=O)[C@@H]2CSSC[C@@H]3NC(=O)[C@H](Cc4c[nH]c5ccccc45)NC(=O)[C@H](C)NC(=O)CNC(=O)CNC(=O)[C@H](CO)NC(=O)[C@H](CCCCN)NC(=O)[C@@H](N)CSSC[C@@H]4NC(=O)[C@H](CSSC[C@H](NC(=O)[C@H](Cc5ccccc5)NC(=O)CNC(=O)[C@H](C(C)C)NC1=O)C(=O)N[C@@H](Cc1ccc(O)cc1)C(=O)NCC(=O)N[C@@H]([C@@H](C)O)C(=O)NCC(=O)N[C@H](C(=O)O)CSSC[C@H](NC(=O)[C@H](CC(N)=O)NC(=O)CNC4=O)C(=O)NCC(=O)N2)NC(=O)CNC(=O)[C@H](Cc1c[nH]cn1)NC(=O)[C@@H]1CCCN1C(=O)[C@H](CC(=O)O)NC(=O)[C@H](Cc1ccccc1)NC(=O)CNC3=O [ginsentide TP1] (H-CKSGGAWCGFDPHGCCGNCGCLVGFCYGTGC-OH; disulfide 1-16, 8-21, 15-26, 19-31), the “thrombus formation in the lung compared to control, 30 mg/kg” value [1] is listed as “significantly reduced” and the “increase in IL-6, IL-8, IL-10, and TNFα” value (THP-1 cells) is listed as “no observable increase”.
